From PMC7114565 (Virus Research, 2016)
Values joined by “and” are separate entries in the source; they are usually repeats but may differ in a detail not shown here. Equal entries are not always repeated. “Also recorded” adds a separate entry of the source.

Key:
[1] = tested on: MERS-CoV EMC/2012; format: cell-based
[2] = tested on: SARS-CoV; format: cell-based
[3] = tested on: murine hepatitis virus (MHV; strain A59); format: cell-based
[4] = tested on: human coronavirus 229E (HCoV-229E); format: cell-based
[5] = tested on: MERS-CoV EMC/2012
[6] = tested on: HCoV-NL63; details: cited from earlier work
[7] = in vitro; details: rhesus monkey
[8] = in vitro; details: mouse
[9] = tested on: MERS-CoV EMC/2012; assay: microbe, parasite or virus in culture; details: Middle East respiratory syndrome-related coronavirus, Huh-7, 48 h
[10] = tested on: LLC-MK2 cells

| SMILES | decrease in MERS-CoV progeny titer [1] | reduction of MERS-CoV progeny titer [1] [log] | effect on SARS-CoV infection [2] | reduction in SARS-CoV virus progeny [2] [log] | decrease of MHV progeny titers [3] [log] | reduction of MHV progeny titers [3] [log] | reduction of HCoV-229E production [4] | CC50 values times higher than the observed EC50 values [5] | EC50 [6] [µM] | reduction in HCoV-NL63 virus progeny [6] [log] | CC50 [7] [µM] | viability [8] [%] | EC50 [9] [µM] | effect on cell viability [10] |
| --- | --- | --- | --- | --- | --- | --- | --- | --- | --- | --- | --- | --- | --- | --- |
| C/C=C/C[C@@H](C)[C@@H](O)[C@H]1C(=O)N[C@@H](CC)C(=O)N(C)[C@H](C)C(=O)N(CC)[C@@H](C(C)C)C(=O)N[C@@H](C(C)C)C(=O)N(C)[C@@H](CC(C)C)C(=O)N[C@@H](C)C(=O)N[C@H](C)C(=O)N(C)[C@@H](CC(C)C)C(=O)N(C)[C@@H](CC(C)C)C(=O)N(C)[C@@H](C(C)C)C(=O)N1C [ALV, alisporivir] | comparable decrease in progeny titer | ~2 | sensitive; also recorded: near-complete block | ~1.5 | 1 | ~2 | ~1.5 log and ~2 log | 7–13 times | 0.8 | 4 | 14.3 ± 1.8 | > 85 | 3.4 ± 1 |  |
| NC(=O)c1ncn([C@@H]2O[C@H](CO)[C@@H](O)[C@H]2O)n1 [ribavirin] |  |  |  |  |  |  |  |  |  |  |  |  |  | gradually lowered the cell viability |
